Paper PMC10100467, “The Function of Two Radical‐SAM Enzymes, HcgA and HcgG, in the Biosynthesis of the [Fe]‐Hydrogenase Cofactor” (Angewandte Chemie (International Ed. in English), 2022)

Biological target: T1, HcgA (Methanococcus maripaludis, UniProt Q6M0Z2)
T1 construct: His-tagged, produced in Escherichia coli with helper plasmid pRKISC; [4Fe-4S] radical SAM enzyme, CX5CX2C motif
T1 sequence (Q6M0Z2 1-341): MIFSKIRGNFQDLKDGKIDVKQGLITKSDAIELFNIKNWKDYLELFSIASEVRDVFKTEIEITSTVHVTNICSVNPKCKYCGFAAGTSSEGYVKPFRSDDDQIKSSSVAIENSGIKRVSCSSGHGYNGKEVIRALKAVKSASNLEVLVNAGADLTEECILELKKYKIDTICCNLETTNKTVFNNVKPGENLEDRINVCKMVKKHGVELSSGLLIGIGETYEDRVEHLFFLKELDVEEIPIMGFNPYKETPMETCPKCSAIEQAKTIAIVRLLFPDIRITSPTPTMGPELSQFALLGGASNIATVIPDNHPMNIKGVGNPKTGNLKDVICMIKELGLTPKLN
Assay: radical SAM activity, HPLC-MS of product […]
Format: biochemical
Conditions: 1 mM SAH, without added SAM; 3 kDa filtrate of the delta-hcgA cell extract as substrate

Nc1ncnc2c1ncn2[C@@H]1O[C@H](CSCC[C@H](N)C(=O)O)[C@@H](O)[C@H]1O [S-adenosyl homocysteine]
relative activity (%): The HcgA activity was inhibited by a radical SAM enzyme inhibitor, S‐adenosyl homocysteine
